Measurements: the Kinase Knowledgebase extract (Sharma et al. 2016)

Legend:
PIK3CG (human) = PIK3CG (human) (UniProt P48736); experiment: Assessment of PIK3CG Kinase Activity
PIK3CD (Human) = PIK3CD (Human) (UniProt O00329); experiment: Assessment of PIK3CD Kinase Activity
PIK3CB (Human) = PIK3CB (Human) (UniProt P42338); experiment: Assessment of PIK3CB Kinase Activity
PIK3CA (human) = PIK3CA (human) (UniProt P42336); experiment: Assessment of PIK3CA Kinase Activity
Chain of PIK3CA (human) (P42336 whole entry, looked up): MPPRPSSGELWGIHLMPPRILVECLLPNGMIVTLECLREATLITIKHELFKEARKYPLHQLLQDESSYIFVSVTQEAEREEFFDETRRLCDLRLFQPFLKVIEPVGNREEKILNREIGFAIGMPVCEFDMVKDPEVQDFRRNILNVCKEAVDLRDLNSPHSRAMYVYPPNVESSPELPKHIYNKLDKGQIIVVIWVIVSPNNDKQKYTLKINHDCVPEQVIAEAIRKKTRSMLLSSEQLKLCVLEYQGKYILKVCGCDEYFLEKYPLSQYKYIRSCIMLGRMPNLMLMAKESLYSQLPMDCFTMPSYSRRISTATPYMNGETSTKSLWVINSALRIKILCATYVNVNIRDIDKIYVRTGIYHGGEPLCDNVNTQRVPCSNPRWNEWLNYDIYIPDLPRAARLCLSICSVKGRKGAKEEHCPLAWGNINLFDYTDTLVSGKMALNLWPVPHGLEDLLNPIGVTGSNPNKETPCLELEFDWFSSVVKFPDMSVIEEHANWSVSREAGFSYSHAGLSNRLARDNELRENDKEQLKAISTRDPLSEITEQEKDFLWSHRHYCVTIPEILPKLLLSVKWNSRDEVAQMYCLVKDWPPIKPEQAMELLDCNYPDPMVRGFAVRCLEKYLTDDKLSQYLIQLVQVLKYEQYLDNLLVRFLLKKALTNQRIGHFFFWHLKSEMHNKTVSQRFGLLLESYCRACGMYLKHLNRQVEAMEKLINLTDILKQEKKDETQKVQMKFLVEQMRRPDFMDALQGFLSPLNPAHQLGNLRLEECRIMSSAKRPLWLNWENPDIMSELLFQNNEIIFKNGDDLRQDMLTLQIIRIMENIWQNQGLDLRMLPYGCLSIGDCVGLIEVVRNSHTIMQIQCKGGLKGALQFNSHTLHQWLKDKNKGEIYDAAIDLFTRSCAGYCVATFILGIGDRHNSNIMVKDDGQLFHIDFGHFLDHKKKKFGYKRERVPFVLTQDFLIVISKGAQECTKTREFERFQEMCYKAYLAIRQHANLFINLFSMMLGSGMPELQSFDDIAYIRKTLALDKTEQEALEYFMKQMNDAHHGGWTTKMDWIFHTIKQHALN

Chain of PIK3CG (human) (P48736 whole entry, looked up): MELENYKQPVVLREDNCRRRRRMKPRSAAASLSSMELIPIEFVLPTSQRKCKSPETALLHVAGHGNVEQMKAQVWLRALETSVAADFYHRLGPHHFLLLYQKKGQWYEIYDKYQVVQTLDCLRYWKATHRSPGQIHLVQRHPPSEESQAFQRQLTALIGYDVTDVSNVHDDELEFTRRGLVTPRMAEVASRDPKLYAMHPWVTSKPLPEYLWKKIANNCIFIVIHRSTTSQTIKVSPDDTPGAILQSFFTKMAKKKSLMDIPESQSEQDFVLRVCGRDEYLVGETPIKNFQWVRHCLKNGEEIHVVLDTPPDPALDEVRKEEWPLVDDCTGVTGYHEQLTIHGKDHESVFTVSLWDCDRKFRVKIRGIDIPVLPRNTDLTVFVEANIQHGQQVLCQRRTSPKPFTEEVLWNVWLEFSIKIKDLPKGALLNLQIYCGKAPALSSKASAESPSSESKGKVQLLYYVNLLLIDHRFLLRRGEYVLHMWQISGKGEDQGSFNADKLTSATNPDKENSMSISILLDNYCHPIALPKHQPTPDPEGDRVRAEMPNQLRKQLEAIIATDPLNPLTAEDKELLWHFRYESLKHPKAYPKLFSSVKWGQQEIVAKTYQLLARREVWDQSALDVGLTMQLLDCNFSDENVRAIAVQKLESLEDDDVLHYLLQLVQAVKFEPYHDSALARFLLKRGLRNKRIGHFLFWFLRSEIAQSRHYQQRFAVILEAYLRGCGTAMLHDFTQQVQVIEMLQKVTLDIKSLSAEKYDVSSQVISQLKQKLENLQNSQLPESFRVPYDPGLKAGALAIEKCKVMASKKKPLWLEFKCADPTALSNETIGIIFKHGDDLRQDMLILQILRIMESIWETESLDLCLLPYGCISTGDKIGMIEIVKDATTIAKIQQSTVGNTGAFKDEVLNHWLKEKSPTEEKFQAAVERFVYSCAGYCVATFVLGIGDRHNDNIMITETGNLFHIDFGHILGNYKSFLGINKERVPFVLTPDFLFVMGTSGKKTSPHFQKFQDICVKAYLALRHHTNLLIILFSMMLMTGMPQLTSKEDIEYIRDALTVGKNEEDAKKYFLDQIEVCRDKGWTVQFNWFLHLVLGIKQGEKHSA
Chain of PIK3CD (Human) (O00329 whole entry, looked up): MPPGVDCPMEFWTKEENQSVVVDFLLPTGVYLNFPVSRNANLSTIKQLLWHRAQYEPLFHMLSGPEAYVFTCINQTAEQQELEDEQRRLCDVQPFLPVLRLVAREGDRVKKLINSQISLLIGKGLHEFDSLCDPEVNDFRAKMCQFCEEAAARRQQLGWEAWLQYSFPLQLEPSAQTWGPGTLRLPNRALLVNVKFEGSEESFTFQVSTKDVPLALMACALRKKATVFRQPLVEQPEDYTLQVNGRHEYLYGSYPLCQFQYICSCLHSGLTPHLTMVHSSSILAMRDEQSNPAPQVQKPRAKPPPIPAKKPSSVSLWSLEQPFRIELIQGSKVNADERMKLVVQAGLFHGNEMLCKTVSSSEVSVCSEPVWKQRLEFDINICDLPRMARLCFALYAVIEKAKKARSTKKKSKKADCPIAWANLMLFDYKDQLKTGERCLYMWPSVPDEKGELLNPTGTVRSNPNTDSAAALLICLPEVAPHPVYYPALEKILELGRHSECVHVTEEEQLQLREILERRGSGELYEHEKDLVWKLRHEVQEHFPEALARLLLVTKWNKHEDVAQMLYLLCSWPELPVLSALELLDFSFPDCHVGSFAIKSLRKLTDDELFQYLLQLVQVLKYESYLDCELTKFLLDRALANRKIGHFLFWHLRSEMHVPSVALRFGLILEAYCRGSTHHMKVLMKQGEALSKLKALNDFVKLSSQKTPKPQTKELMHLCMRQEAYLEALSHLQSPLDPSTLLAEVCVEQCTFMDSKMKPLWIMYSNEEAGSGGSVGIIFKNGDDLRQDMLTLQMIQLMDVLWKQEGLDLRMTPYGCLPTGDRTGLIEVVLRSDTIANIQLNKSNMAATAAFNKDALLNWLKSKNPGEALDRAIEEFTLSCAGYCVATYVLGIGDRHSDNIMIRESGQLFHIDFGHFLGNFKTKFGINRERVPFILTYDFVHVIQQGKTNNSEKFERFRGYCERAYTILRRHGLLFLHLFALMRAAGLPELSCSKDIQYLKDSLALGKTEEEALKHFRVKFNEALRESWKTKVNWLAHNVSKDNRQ
Chain of PIK3CB (Human) (P42338 whole entry, looked up): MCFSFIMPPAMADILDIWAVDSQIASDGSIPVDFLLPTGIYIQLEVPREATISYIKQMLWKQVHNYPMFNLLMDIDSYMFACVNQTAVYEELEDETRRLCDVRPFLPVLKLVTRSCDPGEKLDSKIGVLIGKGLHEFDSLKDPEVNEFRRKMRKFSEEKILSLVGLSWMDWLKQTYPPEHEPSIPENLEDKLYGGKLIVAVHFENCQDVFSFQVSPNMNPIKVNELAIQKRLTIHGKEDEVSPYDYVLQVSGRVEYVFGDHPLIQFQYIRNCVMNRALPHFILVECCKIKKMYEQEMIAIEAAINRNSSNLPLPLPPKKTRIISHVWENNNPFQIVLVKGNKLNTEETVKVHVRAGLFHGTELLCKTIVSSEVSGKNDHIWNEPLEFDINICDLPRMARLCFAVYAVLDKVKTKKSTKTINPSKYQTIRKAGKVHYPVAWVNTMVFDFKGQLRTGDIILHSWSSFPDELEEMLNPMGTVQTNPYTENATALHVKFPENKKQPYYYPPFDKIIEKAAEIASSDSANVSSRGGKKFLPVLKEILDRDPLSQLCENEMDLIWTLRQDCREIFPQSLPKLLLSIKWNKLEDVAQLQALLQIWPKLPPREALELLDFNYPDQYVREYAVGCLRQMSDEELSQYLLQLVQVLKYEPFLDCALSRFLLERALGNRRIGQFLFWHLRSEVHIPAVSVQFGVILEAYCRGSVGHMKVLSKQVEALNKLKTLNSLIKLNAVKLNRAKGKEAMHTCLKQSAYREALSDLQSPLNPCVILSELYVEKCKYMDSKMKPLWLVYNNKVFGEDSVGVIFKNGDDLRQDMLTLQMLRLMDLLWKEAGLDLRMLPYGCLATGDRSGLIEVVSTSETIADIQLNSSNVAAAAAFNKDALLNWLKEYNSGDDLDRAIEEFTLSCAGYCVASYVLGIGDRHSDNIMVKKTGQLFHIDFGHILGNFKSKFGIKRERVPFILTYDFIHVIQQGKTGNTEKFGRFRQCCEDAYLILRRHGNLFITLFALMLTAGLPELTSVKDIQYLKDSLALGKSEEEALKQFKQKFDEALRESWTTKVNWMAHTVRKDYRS

SMILES	IC50 (PIK3CG (human)) [nM]	IC50 (PIK3CD (Human)) [nM]	IC50 (PIK3CB (Human)) [nM]	IC50 (PIK3CA (human)) [nM]
C[C@H](Nc1ncnc2cccnc12)c1cc2cc(F)ccc2c(=O)n1-c1ccccc1	–	100 to 1000	> 10000	–
C[C@H](Nc1nc(N)nc2cccnc12)c1cc2cccc(-c3cncnc3)c2c(=O)n1-c1ccccc1	< 100	< 100	–	–
C[C@H](Nc1ncnc2ccnn12)C1=Cc2cccc(Cl)c2C(C(=O)N2CCOCC2)N1 (stereo partly specified)	–	100 to 1000	–	> 10000
C[C@H](Nc1ccnc2ccnn12)c1cc2cccc(Cl)c2c(=O)n1C1CC1	100 to 1000	< 100	100 to 1000	–
C[C@H](Nc1ccnc2cccnc12)c1cc2cccc(Cl)c2c(=O)n1-c1ccccc1	< 100	< 100	100 to 1000	–
C[C@H](Nc1ncnc2ccnn12)c1cc2cccc(Cl)c2c(=O)n1-c1ccccc1	< 100	< 100	100 to 1000	–
C[C@H](Nc1ccnc2ccnn12)c1cc2cccc(Cl)c2c(=O)n1-c1cccc(F)c1	< 100	< 100	–	–
C[C@H](Nc1ccnn2ccnc12)c1cc2cccc(-c3cnn(C)c3)c2c(=O)n1C1CC1	100 to 1000	< 100	–	–
C[C@H](Nc1ncnc2cccnc12)c1cc2c(F)cccc2c(=O)n1-c1ccccc1	< 100	< 100	–	–
C[C@H](Nc1ccnc2ccnn12)c1cc2scc(Cl)c2c(=O)n1-c1ccccc1	< 100	< 100	100 to 1000	–
C[C@H](Nc1ccnn2ccnc12)c1cc2cccc(Cl)c2c(=O)n1C1CC1	100 to 1000	< 100	100 to 1000	–
C[C@H](Nc1ccnc2ccnn12)c1cc2cccc(Cl)c2c(=O)n1-c1ccccc1	< 100	< 100	100 to 1000	–
COc1ncc(-c2cccc3cc([C@H](C)Nc4ncnc5cccnc45)n(-c4cccc(F)c4)c(=O)c23)cn1	100 to 1000	< 100	> 10000	–
C[C@H](Nc1ccnc2ccnn12)c1cc2cccc(-c3cnn(C)c3)c2c(=O)n1-c1ccccc1	< 100	< 100	–	–
C[C@H](Nc1nc(N)nc2cccnc12)c1nc2cccc(-c3ccnnc3)c2c(=O)n1-c1ccccc1	< 100	< 100	> 10000	–
C[C@H](Nc1ncnc2cccnc12)c1cc2scc(Cl)c2c(=O)n1-c1ccccc1	< 100	< 100	100 to 1000	–
Cc1ncc(-c2cccc3cc([C@H](C)Nc4nc(N)nc5cccnc45)n(-c4cccc(F)c4)c(=O)c23)cn1	< 100	< 100	> 10000	–
C[C@H](Nc1ccnc2ccnn12)c1cc2cccc(Cl)c2c(=O)n1CCN1CCCC1	> 10000	–	–	> 10000
COc1ccc(-c2cccc3cc([C@H](C)Nc4ncnc5cccnc45)n(-c4ccccc4)c(=O)c23)cn1	< 100	< 100	> 10000	–
COc1ncc(-c2cccc3cc([C@H](C)Nc4ccnn5ccnc45)n(-c4ccccc4)c(=O)c23)cn1	100 to 1000	< 100	> 10000	–

SMILES	IC50 (PIK3CG (human)) [nM]	IC50 (PIK3CD (Human)) [nM]	IC50 (PIK3CB (Human)) [nM]	IC50 (PIK3CA (human)) [nM]
C[C@H](Nc1nc(N)nc2cccnc12)c1cc2cccc(-c3cnn(C)c3)c2c(=O)n1-c1ccccc1	< 100	< 100	> 10000	–
C[C@H](Nc1ccnc2ccnn12)c1cc2cccc(-c3cnn(C)c3)c2c(=O)n1-c1cccc(F)c1	100 to 1000	< 100	> 10000	–
C[C@H](Nc1ncnc2cccnc12)c1cc2ccc(F)cc2c(=O)n1-c1ccccc1	< 100	< 100	–	–
C[C@H](Nc1ncnn2ccnc12)c1cc2cccc(Cl)c2c(=O)n1-c1ccccc1	< 100	< 100	100 to 1000	–
Cc1nn(C)cc1-c1cccc2cc([C@H](C)Nc3ncnc4cccnc34)n(-c3ccccc3)c(=O)c12	< 100	< 100	> 10000	–
C[C@H](Nc1ncnc2cccnc12)c1cc2cccc(Cl)c2c(=O)n1-c1ccccc1	< 100	< 100	100 to 1000	–
C[C@H](Nc1ccnn2ccnc12)c1cc2cccc(Cl)c2c(=O)n1CCN1CCCC1	> 10000	–	–	> 10000
CNc1nc(N[C@@H](C)c2cc3cccc(Cl)c3c(=O)n2-c2ccccc2)c2ncccc2n1	< 100	< 100	–	–
C[C@H](Nc1ncnc2scnc12)c1cc2scc(C(F)(F)F)c2c(=O)n1-c1ccccc1	< 100	< 100	100 to 1000	–
C[C@H](Nc1ccnn2ccnc12)c1cc2cccc(-c3cnn(C)c3)c2c(=O)n1-c1cccc(F)c1	< 100	< 100	> 10000	–
C[C@H](Nc1ccnc2ccnn12)c1cc2cccc(-c3cnn(C)c3)c2c(=O)n1C1CC1	–	< 100	–	–
C[C@H](Nc1ccnc2cccnc12)c1cc2cccc(-c3cnn(C)c3)c2c(=O)n1-c1ccccc1	< 100	< 100	–	–
C[C@H](Nc1ccnn2ccnc12)c1cc2cccc(-c3cnn(C)c3)c2c(=O)n1-c1ccccc1	< 100	< 100	–	–
C[C@H](Nc1nc(N)nc2cccnc12)c1cc2cccc(-c3ccnnc3)c2c(=O)n1-c1ccccc1	< 100	< 100	–	–
C[C@H](Nc1ccnn2ccnc12)c1cc2scc(Cl)c2c(=O)n1-c1ccccc1	< 100	< 100	100 to 1000	–
C[C@H](Nc1ncnc2cccnc12)c1cc2cccc(-c3ccc(N)nc3)c2c(=O)n1-c1ccccc1	< 100	< 100	> 10000	–
Cc1cc(-c2cccc3cc([C@H](C)Nc4ncnc5cccnc45)n(-c4ccccc4)c(=O)c23)cnc1C	100 to 1000	< 100	> 10000	–
C[C@H](Nc1ncnc2cccnc12)c1cc2cccc(-c3cnn(C)c3)c2c(=O)n1C1CC1	< 100	< 100	–	–
C[C@H](Nc1nc(N)nc2cccnc12)c1cc2cccc(-c3ccnnc3)c2c(=O)n1-c1cccc(F)c1	< 100	< 100	> 10000	–

Further lines, results first:

IC50 (PIK3CG (human)) [nM]	IC50 (PIK3CD (Human)) [nM]	IC50 (PIK3CB (Human)) [nM]	IC50 (PIK3CA (human)) [nM]	SMILES
< 100	< 100	–	–	C[C@H](Nc1ncnc2[nH]cc(F)c12)c1cc2cccc(C(F)(F)F)c2c(=O)n1-c1ccccc1
< 100	< 100	–	–	C[C@H](Nc1ncnc2cccnc12)c1cc2cccc(C(F)(F)F)c2c(=O)n1-c1cccc(F)c1
< 100	< 100	–	> 10000	C[C@H](Nc1ccnc2cccnc12)c1cc2cccc(C(F)(F)F)c2c(=O)n1-c1ccccc1
< 100	< 100	–	–	Cc1cccc2cc([C@H](C)Nc3ncnc4cccnc34)n(-c3cccc(F)c3)c(=O)c12
< 100	< 100	–	> 10000	C[C@H](Nc1ncnc2ccnn12)c1cc2cccc(C(F)(F)F)c2c(=O)n1-c1ccccc1
< 100	< 100	–	> 10000	C[C@H](Nc1ccnc2ccnn12)c1cc2cccc(C(F)(F)F)c2c(=O)n1-c1cccc(F)c1
< 100	< 100	100 to 1000	–	C[C@H](Nc1ncnc2[nH]cnc12)c1cc2cccc(C(F)(F)F)c2c(=O)n1-c1ccccc1
< 100	< 100	100 to 1000	–	C[C@H](Nc1nc(N)nc2[nH]cnc12)c1cc2cccc(C(F)(F)F)c2c(=O)n1-c1cccc(F)c1
< 100	< 100	100 to 1000	–	C[C@H](Nc1ncnc2[nH]cc(C(N)=O)c12)c1cc2cccc(C(F)(F)F)c2c(=O)n1-c1ccccc1
< 100	< 100	100 to 1000	–	C[C@H](Nc1ncnn2ccnc12)c1cc2cccc(C(F)(F)F)c2c(=O)n1-c1ccccc1
< 100	< 100	100 to 1000	–	C[C@H](Nc1nc(N)nc2cccnc12)c1cc2cccc(C(F)(F)F)c2c(=O)n1-c1ccccc1
< 100	< 100	–	–	C[C@H](Nc1ccnn2ccnc12)c1cc2cccc(C(F)(F)F)c2c(=O)n1-c1cccc(F)c1
< 100	< 100	100 to 1000	–	C[C@H](Nc1ccnn2ccnc12)c1cc2cccc(C(F)(F)F)c2c(=O)n1-c1ccccc1
< 100	< 100	> 10000	–	C[C@H](Nc1ncnc2cccnc12)c1cc2cccc(-c3cnn(C)c3)c2c(=O)n1-c1cccc(F)c1
< 100	< 100	> 10000	–	C[C@H](Nc1nc(N)nc2cccnc12)c1cc2cccc(-c3cnn(C)c3)c2c(=O)n1-c1cccc(F)c1
< 100	< 100	100 to 1000	–	C[C@H](Nc1ncnc(N)c1C#N)c1cc2cccc(C(F)(F)F)c2c(=O)n1-c1cccc(F)c1
< 100	< 100	–	–	C[C@H](Nc1ccnc2cccnc12)c1cc2cccc(Cl)c2c(=O)n1-c1cccc(F)c1
< 100	< 100	100 to 1000	–	C[C@H](Nc1ncnc2scnc12)c1cc2cccc(C(F)(F)F)c2c(=O)n1-c1cccc(F)c1
< 100	< 100	–	–	C[C@H](Nc1nc(N)nc2scnc12)c1cc2cccc(C(F)(F)F)c2c(=O)n1-c1ccccc1
< 100	< 100	100 to 1000	–	C[C@H](Nc1ncnc2cccnc12)c1cc2cccc(C(F)(F)F)c2c(=O)n1-c1ccccc1
< 100	< 100	100 to 1000	–	C[C@H](Nc1ccnc2ccnn12)c1cc2cccc(C(F)(F)F)c2c(=O)n1-c1ccccc1
< 100	< 100	100 to 1000	–	C[C@H](Nc1nc(N)ncc1C#N)c1cc2cccc(C(F)(F)F)c2c(=O)n1-c1cccc(F)c1
< 100	< 100	100 to 1000	–	C[C@H](Nc1ccnc2scnc12)c1cc2cccc(C(F)(F)F)c2c(=O)n1-c1ccccc1
< 100	< 100	–	–	C[C@H](Nc1ncnn2ccnc12)c1cc2cccc(Cl)c2c(=O)n1-c1cccc(F)c1
< 100	< 100	100 to 1000	–	C[C@H](Nc1ccnn2ccnc12)c1cc2cccc(Cl)c2c(=O)n1-c1cccc(F)c1
< 100	< 100	100 to 1000	–	C[C@H](Nc1nc(N)ncc1C#N)c1cc2cccc(C(F)(F)F)c2c(=O)n1-c1ccccc1
